Results reported in ChEMBL document CHEMBL3244275, “Synthesis and antitumor activity of 1,2-dihydro-1-(2-deosy-beta-D-erythro-pentofuranosyl)-2-oxo-5-methylpyrazine 4-oxide, a structural analogue of thymidine” (J Med Chem, 1977).

Assays:
L1210 [1] = test: Growth inhibition of mouse L1210 cells at inhibitor/thymidine ratio 50 after 40 hrs by trypan blue exclusion assay; assay type: functional
Enterococcus faecium = test: Antibacterial activity against Streptococcus faecium at 8 x 10^-5 M; assay type: functional; conditions: read-out: GI
L1210 [2] = test: Growth inhibition of mouse L1210 cells at inhibitor/uridine ratio 0.04 after 40 hrs by trypan blue exclusion assay; assay type: functional
Mus musculus = test: Toxicity in mouse L1210 cells allografted DBA/2 Ha mouse assessed as overt signs of toxicity at 100 to 400 mg/kg, ip qd for 6 days; assay type: organism-based; design: dose 100-400 mg/kg, route intraperitoneal; conditions: in vivo, 144 h
L1210 [3] = test: Growth inhibition of mouse L1210 cells at inhibitor/deoxycytidine ratio 0.2 after 40 hrs by trypan blue exclusion assay; assay type: functional
L1210 [4] = test: Antitumor activity against mouse L1210 cells allografted in DBA/2 Ha mouse assessed as increase in life span of host at 200 mg/kg, ip qd for 6 days relative to control; assay type: functional; conditions: route intraperitoneal
Escherichia coli [5] = test: Antibacterial activity against Escherichia coli at 1 x 10^-3 M; assay type: functional; conditions: read-out: GI
L1210 [6] = test: Antitumor activity against mouse L1210 cells allografted in DBA/2 Ha mouse assessed as increase in life span of host at 100 mg/kg, ip qd for 6 days relative to control; assay type: functional; conditions: route intraperitoneal
L1210 [7] = test: Growth inhibition of mouse L1210 cells at inhibitor/deoxyuridine ratio 2 after 40 hrs by trypan blue exclusion assay; assay type: functional
Escherichia coli [8] = test: Antibacterial activity against Escherichia coli K-12 at 1 x 10^-3 M; assay type: functional; conditions: read-out: GI
L1210 [9] = test: Growth inhibition of mouse L1210 cells at 9 x 10^-7 M after 40 hrs by trypan blue exclusion assay; assay type: functional; conditions: L1210, 40 h, read-out: GI
L1210 [10] = test: Antitumor activity against mouse L1210 cells allografted in DBA/2 Ha mouse assessed as increase in life span of host at 400 mg/kg, ip qd for 6 days relative to control; assay type: functional; conditions: route intraperitoneal
L1210 [11] = test: Growth inhibition of mouse L1210 cells at inhibitor/cytidine ratio 0.02 after 40 hrs by trypan blue exclusion assay; assay type: functional

Cc1cn([C@H]2C[C@H](O)[C@@H](CO)O2)c(=O)c[n+]1[O-]
growth inhibition (GI) (L1210 [1]): 50%
inhibition of growth at 80 µM (Enterococcus faecium): 50%
growth inhibition (GI) (L1210 [2]): 50%
Activity (Mus musculus): Non-toxic
growth inhibition (GI) (L1210 [3]): 50%
Activity (L1210 [4]): 30%
inhibition of growth at 1000 µM (Escherichia coli [5]): 20%
Activity (L1210 [6]): 18%
growth inhibition (GI) (L1210 [7]): 50%
inhibition of growth at 1000 µM (Escherichia coli [8]): 30%
inhibition of growth at 0.9 µM (L1210 [9]): 50%
Activity (L1210 [10]): 55%
growth inhibition (GI) (L1210 [11]): 50%
